From ChEMBL document CHEMBL3751773, “A minimally cytotoxic CD4 mimic as an HIV entry inhibitor” (Bioorg Med Chem Lett, 2016) come the findings set out here.

The structures appear in SMILES notation. A value given as a limit tells only on which side of the number the result lay.

By CC50 is commonly meant the concentration giving 50% cytotoxicity. The IC50 is the concentration needed to halve the response being measured. One may read the half-life as the time in which the quantity being followed falls by half. What is called Vd is the apparent volume that relates the amount in the body to the concentration in plasma or blood.

One data set relates to PM1. Kind of data set: Induction of conformational change in R5-tropic HIV1 cYTA48P gp120 infected in human PM1 cells assessed as increase in binding affinity to monoclonal antibody 4C11 at 100 uM after 15 mins by FACS analysis. In kind it is cell-based. The settings on record: Human immunodeficiency virus 1. (In flow cytometry, cells or beads pass a laser one at a time.)

Data set [1] can be described thus: Cytotoxicity against mock-infected human PM1 cells expressing CCR5 by WST method. It is filed as cell-based.
The test system of data set [2] is Human immunodeficiency virus 1. Kind of data set: Antiviral activity against R5-tropic HIV1 cYTA48P infected in TZM-bl cells by single round assay. It is filed as functional, organism-based. As to conditions: Human immunodeficiency virus 1, cYTA48P.
Data set [3] in a line: Initial concentration in rhesus macaque blood at 75 mg, iv after 0 to 24 hrs by HPLC analysis. The settings on record: rhesus monkey. It is filed as ADME, organism-based, Macaca mulatta.
A short description of data set [4]: Half life in rhesus macaque plasma at 75 mg, iv after 0 to 24 hrs by HPLC analysis. In kind it is ADME, organism-based, Macaca mulatta. The settings on record: rhesus monkey.
A short description of data set [5]: Volume of distribution in rhesus macaque plasma at 75 mg, iv after 0 to 24 hrs by HPLC analysis. It is filed as ADME, organism-based, Macaca mulatta. The settings on record: rhesus monkey.
Data set [6] is described as follows: Toxicity in iv dosed rhesus macaque. In kind it is organism-based, Macaca mulatta. The settings on record: rhesus monkey, in vivo.
Data set [7] has as its system Rhesus monkey. Put plainly: Toxicity in rhesus macaque assessed as decrease in body temperature at 77.8 mg, iv measured within 2 hrs. In kind it is organism-based, Macaca mulatta. As to conditions: in vivo.
Data set [8] relates to Rhesus monkey. Kind of data set: Toxicity in rhesus macaque assessed as decrease in body temperature at 77.8 mg, iv after 24 hrs. In kind it is organism-based, Macaca mulatta. The settings on record: in vivo.
The test system of data set [9] is Rhesus monkey. Put plainly: Toxicity in rhesus macaque assessed as survival at 77.8 mg, iv measured after 6 months. It is filed as organism-based, Macaca mulatta. The settings on record: in vivo, 4383 h.
Data set [10] concerns Rhesus monkey. Kind of data set: Toxicity in rhesus macaque assessed as mydriasis at 77.8 mg, iv measured within 2 hrs. As to conditions: in vivo. In kind it is organism-based, Macaca mulatta.

On to `O=C(Nc1ccc2c(c1)OCO2)C(=O)NC1CC2(CCCCC2)NC2(CCCCC2)C1` (stereo not given), for which the Flu intensity in the data set with PM1 came out at 6.93. This molecule gave a CC50 in [1] of over 200 µM. The IC50 in data set [2] was 1130 nM.
Consider `CC1(C)CC(NC(=O)C(=O)Nc2ccc3c(c2)OCO3)CC(C)(C)N1` [listing 1 of 2 here], for which the C0 in data set [3] was 2090 ng/mL. In data set [4], the half-life was determined as 105 min. This molecule also returned a Vd in data set [5] of 37.2 L. Further, the CC50 in data set [1] was over 300 µM. For the same molecule, the half-maximal inhibitory concentration (IC50) in data set [2] turned out to be 6200 nM.
With `CC1(C)CC(NC(=O)C(=O)Nc2ccc3c(c2)OCO3)CC(C)(C)N1` [listing 2 of 2 here], the Flu intensity with PM1 is 12.3.
On to `CCOC(=O)C1CCN(NC(=O)C(=O)Nc2ccc3c(c2)OCO3)CC1`, for which the Flu intensity in the data set on PM1 was found to be 7.83. The molecule also had a CC50 in data set [1] of over 200 µM. In [2], this molecule displayed an IC50 of over 100000 nM.
Consider `CC1(C)CC(NC(=O)C(=O)Nc2ccc3c(c2)OCO3)CC(C)(C)N1.Cl`, for which the MTD in data set [6] amounted to 12.5 mg/kg. Also, the Activity entry is given as “Toxic” in the data set with Rhesus monkey [7], “Non-toxic” with Rhesus monkey [8], “Non-toxic” in the data set with Rhesus monkey [9] and “Toxic” in the data set with Rhesus monkey [10].
For `CC1(C)CC(NC(=O)C(=O)Nc2ccc(Cl)cc2)CC(C)(C)N1`, the Flu intensity in the data set with PM1 is 8.91. This molecule also gave a CC50 in [1] of 70.4 µM. The same molecule registered an IC50 in data set [2] of 630 nM.
